For experiment [1], the target named is T1, Cx32 (Homo sapiens, UniProt P08034). Kind of experiment: biochemical. Also noted: gene GJB1.
For another experiment, the target named is T2, Cx43 (Homo sapiens, UniProt P17302).
T2 construct: gene GJA1; Cx43 gap junction channel
Description: cryo-EM of Cx43 GJC at […] Å; gap-FRAP in HEK293F cells. The class given is binding.

The target in experiment [2] is T1, Cx32. Description: tryptophan fluorescence quenching; cryo-EM of Cx32 GJC at […] Å; dye uptake and gap-FRAP. Format: binding. Also noted: gene GJB1; purified Cx32 (gap junction channel).

Molecules are shown by their SMILES.

T1 sequence (P08034 whole entry): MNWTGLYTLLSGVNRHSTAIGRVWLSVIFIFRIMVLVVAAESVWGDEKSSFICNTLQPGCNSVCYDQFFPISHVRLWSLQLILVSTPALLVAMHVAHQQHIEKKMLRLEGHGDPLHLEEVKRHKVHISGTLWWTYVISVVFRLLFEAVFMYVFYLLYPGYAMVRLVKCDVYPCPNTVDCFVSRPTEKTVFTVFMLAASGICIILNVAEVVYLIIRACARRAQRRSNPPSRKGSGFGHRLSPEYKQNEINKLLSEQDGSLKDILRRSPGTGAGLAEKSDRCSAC
T2 sequence (P17302 2-382): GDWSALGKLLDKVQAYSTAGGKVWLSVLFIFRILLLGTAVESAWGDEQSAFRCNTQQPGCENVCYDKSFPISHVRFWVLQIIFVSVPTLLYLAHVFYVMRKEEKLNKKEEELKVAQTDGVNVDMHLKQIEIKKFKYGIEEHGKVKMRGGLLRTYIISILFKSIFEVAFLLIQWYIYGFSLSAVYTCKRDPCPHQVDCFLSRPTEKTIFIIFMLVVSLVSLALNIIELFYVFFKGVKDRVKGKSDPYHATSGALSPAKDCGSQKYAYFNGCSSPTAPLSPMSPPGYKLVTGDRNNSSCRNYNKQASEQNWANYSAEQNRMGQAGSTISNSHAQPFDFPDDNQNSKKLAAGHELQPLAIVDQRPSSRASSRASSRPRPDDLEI

As for `NCCOB(c1ccccc1)c1ccccc1` [2APB, 2-aminoethoxydiphenyl borate], at Cx32 [1], the dissociation constant (Kd) – broadly, the constant that tells how readily two partners part at equilibrium – is 1050 nM. `O[C@H](c1cc(C(F)(F)F)nc2c(C(F)(F)F)cccc12)[C@@H]1CCCCN1` (racemic) [MFQ, mefloquine]: the “cryo-EM of Cx43 GJC at 3.7 Å; gap-FRAP in HEK293F cells” value at Cx43 is reported as “a prominent additional density corresponding to MFQ was observed within the region corresponding to site M”. The Kd at Cx32 [2] was found to be 43.1 µM.

These data come from paper PMC11687724, “Mechanism of connexin channel inhibition by mefloquine and 2-aminoethoxydiphenyl borate” (PLOS ONE, 2024).
